Measured values from US10045966B2, “Compositions and methods for treating microbial infections” (Vanderbilt Univeristy, priority 2012, dated 2018).
Entries after “also recorded” stand apart in the source; their conditions may differ.

What was measured:
[1] = tested on: HssRS; experiment: XylE reporter assay (hrtAB promoter-xylE fusion) for HssRS activation; type: cell-based, S. aureus; conditions: for HssRS activation (XylE reporter activity): S. aureus carrying phrt.xylE; for HssRS activation in heme auxotroph ΔhemB: S. aureus hemB::ermC (ΔhemB) carrying phrt.xylE
Experimental: (§1) FIGS. 9A-9C describe a high throughput screen that identifies small molecule activators of HssRS. (A) A secondary screen consisting of a XylE reporter assay verified the activity of the top 110 hits from the primary screen, including '882. Triplicate cultures of S. aureus WT and ΔhssR transformed with the hrtAB promoter-xylE fusion-containing plasmid (phrt.xylE) were grown in the presence of the indicated additive and XylE activity was measured. (B) The structure of lead compound VU0038882 (′882). (C) '882 was confirmed as a hit in a tertiary screen that measured the ability of the compound to pre-adapt S. aureus for growth in 20 μM heme. Triplicate cultures of WT S. aureus were grown overnight in medium containing the indicated additive and sub-cultured into medium containing 20 μM heme. Growth was monitored by measuring the optical density at 600 nm (OD600) over time. (A and C) Error bars represent one standard deviation from the mean.
The present inventors designed and conducted a screening assay to identify activators of HssRS. With reference to FIG. 2A, a reporter plasmid containing the luxABCDE operon from Photorhabdus luminescens driven by the hrtAB promoter (phrt.lux) was used to screen 160,000 compounds from the VICB small molecule library with luminescence. With reference to FIG. 2B, 110 of the top hits from the primary screen were confirmed in a secondary screen using a xylE reporter gene driven by the hrtAB promoter (phrt.xylE). […] Activation of HssRS by a sub-toxic concentration of heme protects S. aureus from a subsequent toxic concentration of heme by upregulating HrtAB. The inhibition of growth due to heme toxicity is determined by measuring the optical density of bacterial cultures at 600 nm. In each screen the present inventors identified hits by comparing their activity to that of heme. […] Cultures of wildtype and ΔhssR carrying phrt.xylE were assayed for XylE activity upon '8882 treatment. The screening method designed by the present inventors as able to successfully identify small molecule activators of the S. aureus heme stress response.
Analogs of '882 were divided into two classes, and chemical modifications of both the Western-naphthol ring and the Eastern-furan ring were conducted. Each set was screened against the XylE assay with heme and '882 as standards for comparison. […] Examples of synthesized compounds and their activity classifications are shown above.

[2] = tested on: S. aureus; experiment: Pre-adaptation for heme toxicity, growth curve analysis; type: cell-based; conditions: overnight pre-treatment, subculture into 20 μM heme
Experimental: as §1, with “(A and C) Error bars represent one standard deviation from the mean.” left out
The present inventors designed and conducted a screening assay to identify activators of HssRS. With reference to FIG. 2A, a reporter plasmid containing the luxABCDE operon from Photorhabdus luminescens driven by the hrtAB promoter (phrt.lux) was used to screen 160,000 compounds from the VICB small molecule library with luminescence. […] The inhibition of growth due to heme toxicity is determined by measuring the optical density of bacterial cultures at 600 nm. […]

[3] = tested on: S. aureus; type: cell-based; conditions: for Growth of ΔmenB (cannot respire, solely ferments): S. aureus ΔmenB, aerobic and anaerobic
[4] = tested on: S. aureus; experiment: Systemic staphylococcal infection in mice, liver CFUs and abscesses; type: in vivo; conditions: mice infected intravenously, intraperitoneal treatment, 96 h
Experimental: FIGS. 16A-16D show embodiments of the preset invention reduce S. aureus pathogenesis in vivo. Mice infected retroorbitally with S. aureus were treated intraperitoneally with vehicle (10% Tween 80) or '373. After 96 h mice were sacrificed and (A) CFUs and (B) surface abscesses were enumerated from the livers. Each marker represents an individual mouse. Data were collected from three independent experiments resulting in n=13 for vehicle and n=12 for '373-treated mice once the highest and lowest values were removed from each group. The horizontal line indicates the mean and the error bars represent the standard error of the mean. Statistical significance was determined by a two-tailed Student's t-test. Livers from mice treated with the indicated dose of '373 were harvested 24 h post-infection (1 h after the 2nd treatment), sectioned, and mounted on MALDI target plates (C). (D) Tissue sections were imaged by MALDI-MS/MS for accumulation of a fragment of '373 by MALDI-MS/MS (m/z 255.2→134). Spectra were acquired at 10 microscans per step. 5 laser shots were acquired per pixel and pixels were obtained every 100 μm.

[5] = Liver tissue level by Imaging Mass Spectrometry and HPLC-MS; conditions: HPLC-MS of excised liver, 24 h post-infection
[6] = tested on: Corynebacterium diphtheriae; experiment: Adaptation to heme toxicity, CFU enumeration; type: cell-based; conditions: C. diphtheriae, subculture into 15 μM heme, versus non-adapted cultures
[7] = tested on: Staphylococcus haemolyticus; experiment: Adaptation to heme toxicity, growth curve; type: cell-based; conditions: S. haemolyticus, subculture into 30 μM heme, versus non-adapted cultures
[8] = tested on: intracellular heme; experiment: Intracellular heme quantification; type: cell-based, S. aureus; conditions: for Intracellular (endogenous) heme levels: pyridine hemochromogen assay / UPLC-MS
Experimental: (B) Heme levels in triplicate cultures of S. aureus treated with the indicated additive were quantified using the pyridine hemochromogen assay and normalized to the concentration of protein in the whole cell lysates. […] (A and B) Error bars represent one standard deviation from the mean. (C) Exact-mass mass spectrometric analysis was used in conjunction with UPLC to detect and quantify heme in protoplasts from cells treated with 40 μM '882 or vehicle grown in triplicate. Measured heme molecules were referenced to estimated CFUs per pellet, factoring in dilutions. Dead or lysed cells would also contribute to the measurement. […] Samples measured in duplicate or triplicate injections had typical errors of <5% between analytical replicates. Error bars represent the standard deviation and significance was calculated using a two-tailed Student's t-test.
Heme levels were quantified using the pyridine hemochromogen assay and normalized to the concentration of protein in the whole cell lysates.
To directly test if '882 exposure increases heme levels within staphylococci, intracellular heme abundance was measured using two distinct approaches. First, intracellular heme levels were quantified using a commercially available heme quantification kit (BioAssay systems).

[9] = tested on: IsdG; experiment: IsdG abundance by immunoblot as reporter of cytoplasmic heme; type: cell-based, S. aureus
Experimental: Wild type and ΔhemV S. aureus transformed with isdG driven under the constitutive Igt promoter (pIgt.isdG) were grown in the presence of increasing concentrations of '8882. Whole cell lysates, along with a protein standard, were blotted with anti IsdG polyclonal antisera and IsdG levels were quantified by densitometry.
Second, the intracellular abundance of the heme stabilized protein IsdG was used as a barometer of functional cytoplasmic heme levels (43), i.e., IsdG is a heme stabilized protein that can be used as a reporter for intracellular heme levels. With reference to FIG. 4A, S. aureus ΔisdG and ΔhemB were transformed with a plasmid that constitutively expresses IsdG (plgt.isdG). These strains were grown to stationary phase in the presence of the indicated concentration of '8882 or heme. Whole cell lysates were immunoblotted with anti-IsdG polyclonal antisera and bands were quantified using densitometry.
To determine if the endogenous heme produced as a result of '882 exposure is available for use in cellular processes, cytoplasmic heme availability was measured by quantifying intracellular levels of the cytoplasmic heme oxygenase IsdG. In the absence of exogenous heme, IsdG is rapidly degraded; however, heme binding stabilizes IsdG and reduces its proteolytic degradation. Therefore, the abundance of IsdG reflects the cytoplasmic levels of heme.

[10] = tested on: C. diphtheriae; experiment: Growth of C. diphtheriae; type: cell-based
[11] = tested on: S. aureus; experiment: Fermentative activity: pH, D-glucose and lactate in culture supernatants; type: cell-based; conditions: aerobic cultures
Experimental: FIGS. 12A-12C show examples of the present invention diminish fermentative activity. S. aureus was grown in triplicate under aerobic conditions in the presence of vehicle (black lines) or 40 μM '882 (gray lines). At the indicated time intervals, culture supernatants were sampled and the (A) pH, (B) D-glucose, and (C) D- and L-lactate were quantified. Error bars represent one standard deviation from the mean.
(§2) The effects of '8882 on fermentation was studied. With reference to FIG. 7A, S. aureus was grown in the presence of the indicated concentration of '8882 or cyanide. Growth was monitored over time by measuring the optical density at 600 nm and normalized to vehicle treated S. aureus. With reference to FIG. 7B, the concentration of glucose and lactate was measured in supernatants collected from S. aureus cultures containing vehicle or '8882. With reference to FIG. 7C, S. aureus grown in the presence or absence of '8882 was subjected to nitric oxide stress after 5 hours of growth. With reference to FIG. 7D, S. aureus was incubated with murine neutrophils in media containing either vehicle or '8882. Bacterial viability was determined by enumerating colony forming units on solid media.

[12] = tested on: S. aureus; type: cell-based; conditions: 24 h; for Viable and gentamicin-resistant bacteria, single agent: treatment alone
Experimental: (A) S. aureus wildtype (WT, dashed lines), the menaquinone auxotroph (ΔmenB, dotted lines), and the heme auxotroph hemB::ermC (ΔhemB, solid lines) were grown in triplicate under aerobic (aer, black lines) and anaerobic (ana, gray lines) conditions in the presence of the indicated log of the concentration of '882 (μM). After 18 h the absorbance at 600 nm (OD600) was measured and normalized to vehicle (DMSO) treated bacteria. Curves were fit by nonlinear regression analysis and absolute log IC50 values were calculated in Prism with the top set at 1.0 and the bottom set at 0.15. […] Error bars represent the standard error of the mean. (B) Triplicate cultures of S. aureus were grown in the presence of the indicated additive. […] Shown is the average of three independent experiments. Error bars represent one standard deviation from the mean. (C) S. aureus was grown in the presence of vehicle (DMSO) or 40 μM '882 and coated in serum. Murine PMNs were elicited with casein and harvested from the peritoneum. The ability of neutrophils to kill S. aureus in the presence of '882 was assessed by comparing CFUs recovered from neutrophil-exposed S. aureus to those recovered from identical conditions lacking neutrophils. The mean of at least six independent experiments performed in triplicate are represented by the data; error bars represent standard error of the mean and significance was determined by a two-tailed Student's t-test.
S. aureus SCVs are obligate fermenters that emerge in response to aminoglycoside treatment. […] To test this, S. aureus was grown in the presence of vehicle, gentamicin, '882, or a combination of gentamicin and '882, and the evolution of gentamicin resistance was monitored.

[13] = tested on: S. aureus Newman; experiment: Co-treatment with kanamycin, CFU enumeration after 24 h; type: cell-based; conditions: TSB
Experimental: With reference to FIG. 8A, S. aureus Newman was cultured in TSB containing the indicated amount of kanamycin or '8882. After 24 h colony forming units (CFUs) were enumerated on solid medium. The dashed line indicates the limit of detection (LOD) and the asterisk denotes that two of the three replicates were below the LOD. Turning to FIG. 8B, 50 ul of each experimental groups was plated on TSA at a dilution of 1:100 except for the co-treatment group, which was plated undiluted. Two of the three co-treated replicates had no viable colonies.

[14] = tested on: S. aureus; experiment: Neutrophil killing of S. aureus; type: cell-based; conditions: murine PMNs, 40 μM
[15] = tested on: neutrophils; type: cell-based, Murine
[16] = tested on: S. aureus; experiment: Nitric oxide stress of S. aureus; type: cell-based; conditions: simultaneous exposure to NO.
Experimental: as §2

[17] = Chemical stability, rule of five and solubility; conditions: free base and trifluoroacetate salt

## Oc1ccccc1-c1cc(-c2ccccc2F)[nH]n1 ['373]
[1]
  HssRS activation (XylE reporter activity): activates HssRS
[2]
  Pre-adaptation of S. aureus for heme toxicity: pre-adapt S. aureus for heme toxicity
[3]
  Growth of ΔmenB (cannot respire, solely ferments): inhibits the growth of S. aureus ΔmenB, although to a lesser extent than '882
[4]
  Decrease in CFUs recovered from the livers versus vehicle: 1 log
  Number of liver abscesses: significant reduction in the number of liver abscesses
[5]
  Liver tissue level versus dose: linear relationship between tissue level and dose

## Oc1c(-c2cc(-c3ccco3)[nH]n2)ccc2ccccc12 ['882]
[1]
  HssRS activation (XylE reporter activity): activates the hrtAB promoter in a dose-responsive manner
  HssRS activation in heme auxotroph ΔhemB: does not activate HssRS in ΔhemB
[1]; listed as '8882
  HssRS activation (XylE reporter activity): most potent activator of HssRS
[2]
  Pre-adaptation of S. aureus for heme toxicity: pre-adapts S. aureus for heme toxicity
[6]
  Survival in heme after pre-treatment: improved survival in heme
[7]
  Survival in heme after pre-treatment: improved survival in heme
[8]; commercial heme quantification kit (BioAssay systems)
  Increase of intracellular heme versus non-exposed bacteria: approximately 10%
[8]
  Intracellular (endogenous) heme levels: increase in a dose-responsive manner
[9]; S. aureus constitutively expressing IsdG
  Intracellular abundance of IsdG: increases the abundance of IsdG in a concentration-dependent fashion
[9]; S. aureus ΔhemB
  Stabilization of IsdG in ΔhemB: not stabilized
[3]
  Bacteriostatic or bacteriocidal (CFU input versus output): bacteriostatic to fermentatively growing staphylococci
  Concentration that halts S. aureus growth: less than 5 μM
  Growth of ΔmenB (cannot respire, solely ferments): more susceptible to '882 toxicity than wildtype; also recorded: bacteriostatic
[3]; S. aureus ΔhemB
  Growth of ΔhemB (SCV deficient in heme biosynthesis): sensitive to '882
[3]; anaerobic
  Growth of wildtype S. aureus grown anaerobically: growth was dramatically reduced
[3]; combined with KCN, aerobic
  Growth of S. aureus in combination with potassium cyanide (KCN): growth is inhibited, even under aerobic conditions
[10]
  Growth of C. diphtheriae: inhibits the growth of C. diphtheriae
[11]
  Glycolytic / fermentative activity (acidification, D-glucose consumption, lactate production): reduced glycolytic activity
[11]; listed as '8882
  Glycolytic / fermentative activity (acidification, D-glucose consumption, lactate production): reduces the ability of S. aureus to ferment
[12]; combined with gentamicin
  Gentamicin-resistant colonies, combination with gentamicin: eliminated all detectable gentamicin-resistant colonies
  Reduction in bacterial viability, combination with gentamicin: 5 log
[12]
  Viable and gentamicin-resistant bacteria, single agent: did not affect the number of viable or gentamicin-resistant bacteria
[13]
  Antibiotic efficacy on co-treatment with kanamycin: improves antibiotic efficacy in vitro
[14]
  Neutrophil-dependent killing of S. aureus: improves neutrophil-dependent killing of S. aureus
[15]
  Neutrophil viability: does not overtly affect neutrophil viability
[16]
  Antibacterial effect of simultaneous exposure with nitric oxide (NO.): more antibacterial than treatment with either molecule alone
[17]
  Chemical stability: good chemical stability
  Rule of five violations: no rule of five violations
[17]; DMSO and aqueous solution
  Solubility: good solubility in DMSO and aqueous solution

## O=CC[C@@H](O)[C@H](O)[C@H](O)CO [Compound 2dG, 2-deoxyglucose, reference compound]
[8]
  Intracellular (endogenous) heme levels: reduces endogenous heme levels

## C=CC1=C(C)c2cc3[n-]c(cc4[n-]c(cc5nc(cc1n2)C(C)=C5C=C)c(C)c4CCC(=O)O)c(CCC(=O)O)c3C.[Fe+2] [heme, reference compound]
[1]
  HssRS activation in heme auxotroph ΔhemB: activates HssRS in ΔhemB
[6]
  Survival in heme after pre-treatment: improved survival in heme
[7]
  Survival in heme after pre-treatment: improved survival in heme

## gentamicin [reference compound]
[12]
  Viable and gentamicin-resistant bacteria, single agent: became resistant to gentamicin
